Laboratory results published in the supplement of paper PMC10307832.

How the values were obtained:
Assay in all cases: relative viability (nuclei count vs DMSO), 5 days (fraction); higher = more cells survive
[1] = compound: C1COCCN1C2=CC(=O)C3=C(O2)C(=CC=C3)C4=CC=CC5=C4SC6=CC=CC=C56
Method in brief: (§1)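 Five library-drug doses, separated by factors of √10, were pinned into 1536-well plates holding lung cancer cell lines after an overnight stay at 37 °C. Cells were fixed, permeabilised and Hoechst-stained in one step after 5 days without medium change, then imaged at 4×. Viability compares treated-well with vehicle-well nuclei, counted in MetaXpress, as a median across plates. Passing plates had control CV below 25% and at least one doubling.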

[2] = compound: CCN(CC)CCCCNc1ncc2cc(-c3cc(OC)cc(OC)c3)c(NC(=O)NC(C)(C)C)nc2n1
Method in brief: as §1

PRIMA-1MET = compound: COCC1(CO)C(=O)C2CCN1CC2 [PRIMA-1MET]
Method in brief: as §1

Zibotentan = compound: COc1nc(C)cnc1NS(=O)(=O)c1cccnc1-c1ccc(-c2nnco2)cc1 [Zibotentan]
Method in brief: as §1

[3] = compound: O=c1cc(-c2cccc3c2Sc2ccccc2S3)oc(N2CCOCC2)c1
Method in brief: as §1

Row | Cell Line | relative viability ([1]; 0.01 µM) | relative viability ([1]; 0.03162 µM) | relative viability ([1]; 0.1 µM) | relative viability ([1]; 0.3162 µM) | relative viability ([1]; 1 µM) | relative viability ([2]; 0.01 µM) | relative viability ([2]; 0.03162 µM) | relative viability ([2]; 0.1 µM) | relative viability ([2]; 0.3162 µM) | relative viability ([2]; 1 µM) | relative viability (PRIMA-1MET; 0.2 µM) | relative viability (PRIMA-1MET; 0.6325 µM) | relative viability (PRIMA-1MET; 2 µM) | relative viability (PRIMA-1MET; 6.325 µM) | relative viability (PRIMA-1MET; 20 µM) | relative viability (Zibotentan; 0.08 µM) | relative viability (Zibotentan; 0.253 µM) | relative viability (Zibotentan; 0.8 µM) | relative viability (Zibotentan; 2.53 µM) | relative viability ([3]; 0.08 µM) | relative viability ([3]; 0.253 µM) | relative viability ([3]; 0.8 µM) | relative viability ([3]; 2.53 µM) | relative viability ([3]; 8 µM)
1 | 201T | 0.988 | 0.989 | 1.01 | 0.954 | 0.953 | 0.976 | 0.972 | 1.01 | 0.954 | 0.898 | 1.07 | 0.93 | 0.758 | 1.01 | 0.987 | 1.01 | 0.968 | 0.986 | 0.978 | 0.952 | 0.971 | 0.844 | 0.944 | 1.03
2 | A549 | 1.01 | 0.96 | 1.01 | 0.973 | 0.914 | 0.927 | 0.97 | 1.15 | 1.06 | 0.876 | 1.1 | 0.893 | 0.944 | 1.01 | 0.891 | 1.04 | 0.938 | 0.931 | 1 | 0.946 | 1.22 | 1.1 | 0.991 | 1.07
3 | A-427 | 0.967 | 1.05 | 0.923 | 0.979 | 1 | 1.01 | 0.896 | 1.07 | 1.12 | 0.844 | 1.01 | 0.836 | 0.831 | 1.02 | 0.855 | 1.08 | 0.972 | 0.942 | 1.01 | 0.958 | 1.03 | 1.09 | 0.814 | 1.06
4 | ABC-1 | 0.917 | 1.16 | 1.03 | 1.04 | 0.954 | 0.957 | 0.838 | 1.25 | 1.07 | 0.869 | 0.953 | 0.621 | 0.903 | 0.829 | 0.247 | 1.06 | 0.753 | 0.96 | 1 | 0.922 | 1.09 | 0.808 | 0.976 | 1.12
5 | BEN | 0.919 | 1.04 | 0.931 | 1.04 | 0.897 | 1 | 0.89 | 1 | 1.01 | 0.816 | 0.982 | 0.825 |  | 1.06 | 1.01 | 1.06 | 0.782 | 0.936 | 0.941 | 0.876 | 0.931 | 0.946 | 0.996 | 1.18
6 | CAL-12T | 0.924 | 0.991 | 1.03 | 1.05 | 0.854 | 0.901 | 1.03 | 1.04 | 1.04 | 0.974 | 0.946 | 0.924 | 1.02 | 0.934 | 0.352 | 0.965 | 0.918 | 0.942 | 1.03 | 0.94 | 1.06 | 0.952 | 0.955 | 0.883
7 | COR-L23 | 1 | 1 | 1.01 | 1.02 | 1.06 | 1.1 | 1.14 | 1.33 | 1.16 | 1.11 | 1.33 | 0.936 | 0.94 | 1.11 | 0.0329 | 1.06 | 1.06 | 1.01 | 1.03 | 1.03 | 1.37 | 1.12 | 1.03 | 1.14
8 | COR-L 105 | 0.88 | 0.926 | 0.943 | 0.899 | 0.914 | 0.838 | 0.914 | 1.1 | 1.06 | 0.835 | 1 | 0.899 | 0.818 | 0.835 | 0.175 | 1.01 | 0.861 | 0.959 | 1.02 | 0.811 | 1.04 | 0.871 | 0.835 | 0.978
9 | Calu-6 | 1.05 | 1.06 | 1.08 | 1.01 | 1.05 | 0.989 | 1.1 | 1.11 | 1.11 | 1.02 | 1.06 | 0.977 | 0.97 | 0.948 | 0.812 | 1.04 | 0.932 | 0.979 | 1 | 1 | 1.1 | 1.05 | 0.955 | 0.924
10 | ChaGo-K-1 | 1.03 | 0.956 | 0.95 | 1.04 | 0.954 | 1.02 | 0.967 | 1.11 | 1.02 | 0.941 | 0.994 | 0.814 | 0.98 | 1 | 0.884 | 1.04 | 0.983 | 0.743 | 0.943 | 0.975 | 0.953 | 1.03 | 0.935 | 1.08
11 | EBC-1 | 1.04 | 0.965 | 0.928 | 0.932 | 0.917 | 1.11 | 0.988 | 1.06 | 1.24 | 0.953 | 1.09 | 0.998 | 0.933 | 0.987 | 0.811 | 0.944 | 0.991 | 1.06 | 1.09 | 1.02 | 1.07 | 0.98 | 0.929 | 0.779
12 | EKVX | 0.964 | 0.966 | 1.04 | 0.926 | 0.924 | 0.888 | 0.877 | 1.02 | 1.13 | 0.981 | 1.17 | 0.905 | 0.731 | 0.975 | 0.885 | 0.957 | 0.944 | 0.963 | 1.03 | 0.974 | 0.997 | 0.903 | 0.888 | 1.03
13 | EMC-BAC-2 | 0.94 | 1.03 | 1.07 | 1.09 | 0.655 |  | 0.967 | 1.13 | 1.13 | 0.994 | 1.31 | 0.916 | 0.738 | 1.05 | 0.971 | 1.41 |  | 1.08 | 1.02 | 0.927 | 1.12 | 0.999 | 1.03 | 1.18
14 | EPLC-272H | 1.01 | 0.947 | 0.676 | 1.04 | 0.87 | 1.04 | 0.686 | 1.03 | 1.05 | 0.703 | 0.862 | 0.839 | 0.943 | 1.03 | 0.831 | 0.945 | 1.07 | 0.863 | 0.911 | 0.936 | 0.939 | 0.959 | 0.907 | 1.18
15 | H3255 | 0.926 | 0.96 | 0.95 | 1.05 | 0.812 | 0.999 | 0.938 | 1.07 | 1.12 | 0.978 | 0.992 | 0.89 | 0.938 | 0.989 | 0.952 | 0.981 | 1.03 | 1.06 | 0.938 | 0.929 | 0.917 | 0.994 | 0.994 | 1.19
16 | HARA | 0.859 | 0.893 | 0.958 | 0.981 | 0.865 | 1.14 | 1.06 | 1.04 | 0.993 | 0.636 | 1.04 | 0.796 |  | 0.977 | 0.997 | 1.04 | 0.86 | 0.951 | 1 | 0.903 | 1.12 | 0.94 | 0.767 | 0.843
17 | HCC-15 | 0.963 | 1.14 | 1.08 | 0.968 | 1.03 | 1.08 | 1.03 | 1.08 | 1.2 | 0.957 | 0.967 | 0.856 | 0.936 | 1.01 | 0.874 | 0.995 | 0.994 | 1.09 | 1.01 | 0.954 | 1.13 | 1.06 | 0.94 | 1.06
18 | HCC-44 | 0.981 | 1.04 | 1.01 | 0.979 | 0.933 | 0.982 | 0.976 | 1.07 | 1.05 | 1.06 | 1.05 | 0.921 | 1.04 | 0.922 | 0.974 | 1.07 | 0.935 | 0.978 | 0.986 | 0.956 | 1.04 | 0.919 | 0.905 | 1.04
19 | HCC-78 | 1.07 | 0.94 | 0.856 | 0.886 | 0.774 | 0.879 | 0.906 | 1.06 | 1.08 | 0.917 | 1.15 | 0.925 | 0.724 | 1.03 | 0.474 | 1.03 | 0.942 | 0.937 | 0.782 | 0.949 | 1.09 | 0.75 | 0.871 | 1.03
20 | HCC-366 | 1.02 | 1.01 | 1.09 | 1.02 | 1.02 | 1.03 | 1.05 | 1.13 | 1.02 | 1 | 1.08 | 0.991 |  | 1.06 | 0.854 | 1.03 | 0.992 | 0.877 | 1.01 | 0.999 | 1.08 | 1.09 | 1.03 | 1.06
21 | HCC-827 | 1.04 | 1.11 | 1.02 | 1.06 | 0.992 | 1.04 | 1.07 | 1.08 | 1.06 | 1 | 0.986 | 0.952 | 0.791 | 1.02 | 1.02 | 1.05 | 1.04 | 1.05 | 1.01 | 1.04 | 1.07 | 1.05 | 0.773 | 1.06
22 | HOP-62 | 1.08 | 1 | 0.997 | 0.954 | 0.981 | 1.06 | 1.09 | 1.21 | 1.06 | 1.05 | 1.06 | 0.989 | 0.915 | 1.14 | 0.744 | 1.03 | 1.03 | 1.16 | 1.01 | 1.03 | 1.11 | 1.13 | 0.886 | 1.14
